This note sets out measurements from paper PMC6691772, “Novel phthalimide based analogues: design, synthesis, biological evaluation, and molecular docking studies” (Journal of Enzyme Inhibition and Medicinal Chemistry, 2019).

Values after ≈ are worked out from the molar mass of the structure shown.

Series [1] concerns S. pneumonia RCMB 010010. Kind of series: Agar well diffusion, inhibition zone. The class given is cell-based, Streptococcus pneumoniae. Particulars: Streptococcus pneumoniae, RCMB010010, 1 mg/mL, mean of three values, read-out: Mean diameter of inhibition zone (Mean ± SEM).
Series [2] relates to B. subtilis RCMB 010067. Kind of series: Agar well diffusion, inhibition zone. It is filed as cell-based, Bacillus subtilis. Particulars: Bacillus subtilis, RCMB010067, 1 mg/mL, mean of three values, read-out: Mean diameter of inhibition zone (Mean ± SEM).
The test system of series [3] is P. aeruginosa RCMB 010043. Put plainly: Agar well diffusion, inhibition zone. It is filed as cell-based, Pseudomonas aeruginosa. The conditions noted are these: mean of three values; for zone of inhibition at 1000 µg/mL: Pseudomonas aeruginosa, RCMB010043, 1 mg/mL, read-out: Mean diameter of inhibition zone (Mean ± SEM). Further details: key to Mean diameter of inhibition zone (Mean ± SEM): –: -: No activity under the screening conditions.

Series [4] concerns E. coli RCMB 010052. Kind of series: Agar well diffusion, inhibition zone. It is filed as cell-based, Escherichia coli. Also on record: key to Mean diameter of inhibition zone (Mean ± SEM): –: -: No activity under the screening conditions. The conditions noted are these: mean of three values; for zone of inhibition at 1000 µg/mL: Escherichia coli, RCMB010052, 1 mg/mL, read-out: Mean diameter of inhibition zone (Mean ± SEM).

In series [5] the test system is A. fumigatus RCMB 002568. Kind of series: Agar well diffusion, inhibition zone. It is filed as cell-based, Aspergillus fumigatus. Particulars: mean of three values; for Mean diameter of inhibition zone (Mean ± SEM): 1 mg/mL. Also on record: key to Mean diameter of inhibition zone (Mean ± SEM): –: -: No activity under the screening conditions.
The subject of the next series is C. albicans RCMB 005036. Put plainly: Agar well diffusion, inhibition zone. The conditions noted are these: 1 mg/mL, mean of three values. Also on record: key: –: -: No activity under the screening conditions. The class given is cell-based, Candida albicans.
The subject of series [6] is P. aeruginosa RCMB 010043. Put plainly: Minimum inhibitory concentration, modified agar well diffusion. It is filed as cell-based. Particulars: Pseudomonas aeruginosa, RCMB010043, mean of three values, read-out: MIC (Mean ± SEM).
Series [7] concerns E. coli RCMB 010052. The series is described as above. The class given is cell-based. The conditions noted are these: Escherichia coli, RCMB010052, mean of three values, read-out: MIC (Mean ± SEM).
Series [8] deals with human liver cancer cell line (HepG-2). Put plainly: MTT anticancer assay. The conditions noted are these: HepG2, HePG-2 cancer liver cell line, mean of three values, read-out: IC50 (Mean ± SEM). The class given is cell-based.
For series [9], the system named is (THLE-2) normal liver cell line. Put plainly: Cytotoxic screening on normal liver cells. The class given is cell-based. Particulars: Homo sapiens, mean of three values, read-out: IC50 (Mean ± SEM).
Series [10] deals with S. pneumonia RCMB 010010. Kind of series: Minimum inhibitory concentration, modified agar well diffusion. Particulars: Streptococcus pneumoniae, RCMB010010, mean of three values, read-out: MIC (Mean ± SEM). The class given is cell-based.
For series [11], the system named is B. subtilis RCMB 010067. The description is as above. The conditions noted are these: Bacillus subtilis, RCMB010067, mean of three values, read-out: MIC (Mean ± SEM). It is filed as cell-based.
Series [12] relates to A. fumigatus RCMB 002568. The series is described as above. It is filed as cell-based. The conditions noted are these: Aspergillus fumigatus, RCMB002568, mean of three values, read-out: MIC (Mean ± SEM).

`CC1(C)S[C@@H]2[C@H](NC(=O)[C@H](N)c3ccccc3)C(=O)N2[C@H]1C(=O)O` [Ampicillin, reference compound]: the zone of inhibition at 1000 µg/mL came out at 23.8 ± 0.71 mm in the series with S. pneumonia RCMB 010010 [1] and 26.4 ± 0.5 mm in the series on B. subtilis RCMB 010067 [2]. The “Mean diameter of inhibition zone (Mean ± SEM)” value (in series [3] (1 mg/mL); in the series with E. coli RCMB 010052 [4] (1 mg/mL); in the series on A. fumigatus RCMB 002568 [5]; with C. albicans RCMB 005036) was “–” in each case. The MIC was found to be 3.9 ± 0.15 µg/mL (≈ 11.2 µM) in series [6] and 0.98 ± 1.05 µg/mL (≈ 2.8 µM) in the series with E. coli RCMB 010052 [7].
As for `CCOC(=O)C(C#N)=NNN1C(=O)c2ccccc2C1=O` [Compound 3, Ethyl 2-cyano-2-(2-(1,3-dioxoisoindolin-2-yl)hydrazono)acetate], the melting point fell in the range of 128 to 129 °C. Also, in the series on S. pneumonia RCMB 010010 [1], the zone of inhibition at 1000 µg/mL came to 18.3 ± 0.7 mm. Moreover, in the series on B. subtilis RCMB 010067 [2], the zone of inhibition at 1000 µg/mL worked out at 17.3 ± 0.6 mm. Further, in series [3], the zone of inhibition at 1000 µg/mL came to 15.3 ± 0.7 mm. Besides, the zone of inhibition at 1000 µg/mL in the series on E. coli RCMB 010052 [4] is 17.1 ± 0.5 mm. The “Mean diameter of inhibition zone (Mean ± SEM)” value in the series on A. fumigatus RCMB 002568 [5] is listed as “–”. Further, the “Mean diameter of inhibition zone (Mean ± SEM)” value in the series with C. albicans RCMB 005036 is recorded as “–”. The IC50 in [8] came to 12.6 ± 0.13 µg/mL (≈ 44 µM). In addition, the concentration for half-maximal inhibition (IC50) in series [9] worked out at 716.37 ± 0.1 µg/mL (≈ 2500 µM).
The compound `NC1=Nc2c(N=NN3C(=O)c4ccccc4C3=O)c(O)nn2C1` [Compound 6, 2-((2-Amino-6-hydroxy-3H-imidazo[1,2-b]pyrazol-7-yl)diazenyl)isoindoline-1,3-dione] gave a melting point of 180 to 182 °C. Moreover, in the series with S. pneumonia RCMB 010010 [1], the zone of inhibition at 1000 µg/mL is 20.8 ± 1.5 mm. Besides, the zone of inhibition at 1000 µg/mL in the series with B. subtilis RCMB 010067 [2] turned out to be 17.8 ± 1.2 mm. Further, the zone of inhibition at 1000 µg/mL in [3] is 11.9 ± 1.3 mm. The zone of inhibition at 1000 µg/mL in the series with E. coli RCMB 010052 [4] amounted to 16.3 ± 0.5 mm. Besides, the “Mean diameter of inhibition zone (Mean ± SEM)” value in the series on A. fumigatus RCMB 002568 [5] is “–”. In addition, in the series on C. albicans RCMB 005036, the “Mean diameter of inhibition zone (Mean ± SEM)” value was “–”. The IC50 in series [8] came to 14.4 ± 0.37 µg/mL (≈ 46.3 µM). In addition, the concentration for half-maximal inhibition (IC50) in [9] was determined as 652.46 ± 0.03 µg/mL (≈ 2100 µM).
Consider `O=C1c2ccccc2C(=O)N1N=Nc1c(O)nn2cc(-c3ccccc3)[nH]c12` [Compound 7, 2-((6-Hydroxy-2-phenyl-1H-imidazo[1,2-b]pyrazol-7-yl)diazenyl)isoindoline-1,3-dione], for which the melting point lay in the range of 196 to 198 °C. Also, the zone of inhibition at 1000 µg/mL in the series with S. pneumonia RCMB 010010 [1] was 12.7 ± 0.6 mm. Also, in the series with B. subtilis RCMB 010067 [2], the zone of inhibition at 1000 µg/mL turned out to be 21.5 ± 1.5 mm. Also, the zone of inhibition at 1000 µg/mL in series [3] is 16.9 ± 1.2 mm. The zone of inhibition at 1000 µg/mL in the series with E. coli RCMB 010052 [4] was found to be 11.9 ± 1.3 mm. In the series with A. fumigatus RCMB 002568 [5], the “Mean diameter of inhibition zone (Mean ± SEM)” value is given as “–”. The “Mean diameter of inhibition zone (Mean ± SEM)” value in the series with C. albicans RCMB 005036 was “–”. Further, the half-inhibitory concentration (IC50) in series [8] was 23.6 ± 1.32 µg/mL (≈ 63.4 µM). Besides, the IC50 in series [9] was 662.58 ± 0.17 µg/mL (≈ 1780 µM).
For the compound `CSc1c(C#N)c(N)nc2c(N=NN3C(=O)c4ccccc4C3=O)c(O)nn12` [Compound 9, 5-Amino-3-((1,3-dioxo-1,3-dihydro-2H-isoindol-2-yl)diazenyl)-2-hydroxy-7-(methylthio)pyrazolo[1,5-a]pyrimidine-6-carbonitrile], the melting point lay in the range of 210 to 211 °C. Moreover, in the series with S. pneumonia RCMB 010010 [1], the zone of inhibition at 1000 µg/mL came out at 22.2 ± 0.6 mm. In addition, the zone of inhibition at 1000 µg/mL in the series with B. subtilis RCMB 010067 [2] was 23.2 ± 1.5 mm. In addition, in [3], the zone of inhibition at 1000 µg/mL came out at 17.2 ± 1.3 mm. Further, the zone of inhibition at 1000 µg/mL in the series with E. coli RCMB 010052 [4] stood at 24 ± 1.3 mm. Moreover, the zone of inhibition at 1000 µg/mL in the series with A. fumigatus RCMB 002568 [5] (Aspergillus fumigatus, RCMB002568, 1 mg/mL, read-out: Mean diameter of inhibition zone (Mean ± SEM)) was 16.6 ± 1.3 mm. The “Mean diameter of inhibition zone (Mean ± SEM)” value with C. albicans RCMB 005036 was “–”. The minimum inhibitory concentration (MIC) in the series with S. pneumonia RCMB 010010 [10] amounted to 3.9 ± 0.2 µg/mL (≈ 9.89 µM). In addition, the minimal inhibitory concentration (MIC) in the series on B. subtilis RCMB 010067 [11] amounted to 1.95 ± 1.3 µg/mL (≈ 4.94 µM). For the same compound, the minimum inhibitory concentration (MIC) in [6] stood at 15.6 ± 0.26 µg/mL (≈ 39.6 µM). Besides, the minimum inhibitory concentration (MIC) in the series on E. coli RCMB 010052 [7] worked out at 0.49 ± 1.08 µg/mL (≈ 1.24 µM). Moreover, the minimal inhibitory concentration (MIC) in the series with A. fumigatus RCMB 002568 [12] is 1.95 ± 0.34 µg/mL (≈ 4.94 µM). Moreover, in series [8], the IC50 came out at 5.6 ± 1.57 µg/mL (≈ 14.2 µM). In addition, the IC50 in series [9] is 754.31 ± 0.2 µg/mL (≈ 1910 µM).
